Experimental data published in ChEMBL document CHEMBL5523713, “Development of novel N-aryl-2,4-bithiazole-2-amine-based CYP1B1 degraders for reversing drug resistance” (Eur J Med Chem, 2024).
The source made the active and inactive calls. No cut-off for these calls is given here.

Experiments:
A549/TR [1] = experiment: Inhibition of epithelial-to-mesenchymal transition in human A549/Taxol cells assessed as reduction in CYP1B1 expression at 0.1 to 10 nM incubated for 24 hrs by immunoblot analysis; type: functional, cell-based; details: dose 0.1-10 nM
Cytochrome P450 1A2 = target: T1, Cytochrome P450 1A2 (Homo sapiens, UniProt P05177); experiment: Inhibition of recombinant human CYP1A2 using 7-ethyl-O-resorufin as substrate incubated for 30 mins in presence of NADPH by EROD assay; type: ADME
T1 sequence (P05177 whole entry): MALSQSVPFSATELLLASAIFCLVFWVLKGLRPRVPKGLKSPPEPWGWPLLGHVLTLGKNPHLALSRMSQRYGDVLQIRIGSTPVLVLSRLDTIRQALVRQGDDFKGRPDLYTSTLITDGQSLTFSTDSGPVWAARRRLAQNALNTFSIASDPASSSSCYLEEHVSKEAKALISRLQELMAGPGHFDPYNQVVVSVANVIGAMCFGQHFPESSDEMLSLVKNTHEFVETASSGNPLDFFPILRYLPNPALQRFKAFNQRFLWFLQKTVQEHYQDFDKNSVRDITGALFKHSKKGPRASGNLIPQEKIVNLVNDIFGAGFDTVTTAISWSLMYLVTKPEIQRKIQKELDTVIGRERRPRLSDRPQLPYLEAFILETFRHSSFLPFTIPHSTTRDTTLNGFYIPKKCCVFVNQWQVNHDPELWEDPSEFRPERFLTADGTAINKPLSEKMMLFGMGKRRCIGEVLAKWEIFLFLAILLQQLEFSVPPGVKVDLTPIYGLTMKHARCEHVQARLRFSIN

Cytochrome P450 1B1 = target: T2, Cytochrome P450 1B1 (Homo sapiens, UniProt Q16678); experiment: Inhibition of recombinant human CYP1B1 using 7-ethyl-O-resorufin as substrate incubated for 30 mins in presence of NADPH by EROD assay; type: ADME
T2 sequence (Q16678 whole entry): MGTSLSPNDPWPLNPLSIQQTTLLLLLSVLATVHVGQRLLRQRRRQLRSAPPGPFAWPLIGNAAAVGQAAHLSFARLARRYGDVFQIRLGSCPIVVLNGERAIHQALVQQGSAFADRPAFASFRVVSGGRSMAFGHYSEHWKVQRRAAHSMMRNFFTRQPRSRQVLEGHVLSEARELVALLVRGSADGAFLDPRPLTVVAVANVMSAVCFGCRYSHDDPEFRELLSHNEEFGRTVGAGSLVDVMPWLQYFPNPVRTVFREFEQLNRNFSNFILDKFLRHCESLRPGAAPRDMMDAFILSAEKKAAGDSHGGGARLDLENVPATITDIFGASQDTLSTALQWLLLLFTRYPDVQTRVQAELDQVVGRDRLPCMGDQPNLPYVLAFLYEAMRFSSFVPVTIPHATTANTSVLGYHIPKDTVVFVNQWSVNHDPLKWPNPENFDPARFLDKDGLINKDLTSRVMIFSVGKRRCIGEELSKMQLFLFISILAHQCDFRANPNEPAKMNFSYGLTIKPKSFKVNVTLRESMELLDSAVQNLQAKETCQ

[2] = target: T3, von Hippel-Lindau disease tumor suppressor/Cytochrome P450 1B1 (Homo sapiens, UniProt Q16678+P40337); experiment: PROTAC activity at VHL/CYP1B1 in human A549/Taxol cells assessed as reduction in CYP1B1 level by Western blotting analysis; type: ADME, cell-based
T3 sequence (P40337 whole entry, one chain of several): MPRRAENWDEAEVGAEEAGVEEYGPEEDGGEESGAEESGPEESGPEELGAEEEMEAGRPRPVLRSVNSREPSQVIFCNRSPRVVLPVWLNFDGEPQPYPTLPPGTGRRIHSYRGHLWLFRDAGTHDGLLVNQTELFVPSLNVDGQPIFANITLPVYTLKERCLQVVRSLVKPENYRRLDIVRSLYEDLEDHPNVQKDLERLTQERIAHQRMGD

Cytochrome P450 1A1 = target: T4, Cytochrome P450 1A1 (Homo sapiens, UniProt P04798); experiment: Inhibition of recombinant human CYP1A1 using 7-ethyl-O-resorufin as substrate incubated for 30 mins in presence of NADPH by EROD assay; type: ADME
T4 sequence (P04798 whole entry): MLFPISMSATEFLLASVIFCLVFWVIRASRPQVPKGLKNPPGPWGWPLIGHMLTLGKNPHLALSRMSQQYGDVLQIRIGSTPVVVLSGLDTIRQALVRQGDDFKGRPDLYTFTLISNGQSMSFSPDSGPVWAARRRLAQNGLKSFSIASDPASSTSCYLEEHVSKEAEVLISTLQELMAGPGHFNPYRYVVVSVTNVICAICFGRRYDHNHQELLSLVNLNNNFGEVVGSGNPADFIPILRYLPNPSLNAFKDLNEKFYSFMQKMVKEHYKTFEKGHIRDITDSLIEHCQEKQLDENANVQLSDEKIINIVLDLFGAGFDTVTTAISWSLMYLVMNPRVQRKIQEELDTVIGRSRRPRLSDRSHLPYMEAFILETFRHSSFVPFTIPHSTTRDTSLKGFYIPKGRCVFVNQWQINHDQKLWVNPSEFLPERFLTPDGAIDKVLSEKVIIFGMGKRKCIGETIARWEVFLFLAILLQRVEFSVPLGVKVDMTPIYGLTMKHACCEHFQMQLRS

A549/TR [3] = experiment: Effect on paxillin protein level in human A549/Taxol cells at 0.1 to 10 nM incubated for 24 hrs by Western blotting analysis; type: functional, cell-based; details: dose 0.1-10 nM
A549/TR [4] = experiment: Downregulation of P-glycoprotein expression in human A549/Taxol cells at 0.1 to 10 nM by Western blotting analysis; type: functional, cell-based; details: dose 0.1-10 nM
A549/TR [5] = experiment: Reversal of taxol resistance in human A549/Taxol cells assessed as decrease in cell viability at 0.1 to 10 nM incubated for 48 to 72 hrs by MTT assay; type: functional, cell-based; details: dose 0.1-10 nM, time 48-72 hrs
[6] = target: T3, von Hippel-Lindau disease tumor suppressor/Cytochrome P450 1B1; experiment: PROTAC activity at VHL/CYP1B1 in human A549/Taxol cells assessed as reduction in CYP1B1 level at 100 nM incubated for 24 hrs by Western blotting analysis; type: ADME, cell-based; details: 0.1 µM
[7] = target: Protein cereblon/Cytochrome P450 1B1 (Homo sapiens, UniProt Q16678+Q96SW2); experiment: PROTAC activity at CRBN/CYP1B1 in human A549/Taxol cells assessed as degradation by measuring fold change in remaining CYP1B1 level incubated for 24 hrs by Western blotting analysis (reference value: 1); type: ADME, cell-based
Protein cereblon/Cytochrome P450 1B1, sequence (Q96SW2 whole entry, one chain of several): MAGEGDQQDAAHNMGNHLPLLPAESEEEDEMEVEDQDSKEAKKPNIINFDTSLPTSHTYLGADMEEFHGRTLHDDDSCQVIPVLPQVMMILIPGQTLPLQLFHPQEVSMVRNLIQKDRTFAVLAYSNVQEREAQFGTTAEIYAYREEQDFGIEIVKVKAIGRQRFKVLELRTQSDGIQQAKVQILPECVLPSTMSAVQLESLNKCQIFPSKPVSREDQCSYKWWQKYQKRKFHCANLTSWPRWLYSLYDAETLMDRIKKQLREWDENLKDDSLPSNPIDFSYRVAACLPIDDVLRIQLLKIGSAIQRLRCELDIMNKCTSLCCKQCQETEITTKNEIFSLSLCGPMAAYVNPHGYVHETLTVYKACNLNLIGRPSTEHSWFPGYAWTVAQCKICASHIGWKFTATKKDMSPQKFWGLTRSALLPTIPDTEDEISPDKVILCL

[8] = target: T3, von Hippel-Lindau disease tumor suppressor/Cytochrome P450 1B1; experiment: PROTAC activity at VHL/CYP1B1 in human A549/Taxol cells assessed as degradation by measuring fold change in remaining CYP1B1 level incubated for 24 hrs by Western blotting analysis (reference value: 1); type: ADME, cell-based
A549/TR [9] = experiment: Inhibition of cell migration in human A549/Taxol cells at 0.1 to 10 nM incubated for 48 hrs by wound healing assay; type: functional, cell-based; details: dose 0.1-10 nM
[10] = target: Proto-oncogene tyrosine-protein kinase Src (Homo sapiens) (UniProt P12931); experiment: Inhibition of SRC phosphorylation in human A549/Taxol cells at 0.1 to 10 nM incubated for 24 hrs by Western blotting analysis; type: cell-based; details: dose 0.1-10 nM
Proto-oncogene tyrosine-protein kinase Src (Homo sapiens), sequence (P12931 2-536 limits assumed): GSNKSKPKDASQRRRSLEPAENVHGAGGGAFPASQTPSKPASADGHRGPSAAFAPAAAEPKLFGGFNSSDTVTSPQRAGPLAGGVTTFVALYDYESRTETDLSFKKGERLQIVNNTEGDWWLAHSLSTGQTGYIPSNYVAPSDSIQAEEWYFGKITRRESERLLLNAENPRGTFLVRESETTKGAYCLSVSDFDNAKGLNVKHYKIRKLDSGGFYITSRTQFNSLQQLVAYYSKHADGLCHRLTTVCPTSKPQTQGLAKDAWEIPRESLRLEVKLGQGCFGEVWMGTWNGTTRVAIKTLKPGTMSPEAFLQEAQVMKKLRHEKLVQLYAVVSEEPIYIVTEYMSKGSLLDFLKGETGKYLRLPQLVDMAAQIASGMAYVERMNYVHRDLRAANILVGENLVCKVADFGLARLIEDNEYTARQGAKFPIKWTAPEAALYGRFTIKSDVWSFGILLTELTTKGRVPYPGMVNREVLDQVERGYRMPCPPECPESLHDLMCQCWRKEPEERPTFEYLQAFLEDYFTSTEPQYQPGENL

**Q.** `Clc1ccc(Nc2nc(-c3nc(-c4ccccc4)cs3)cs2)cc1` was tested. Which inhibition (A549/TR [1]) did it give?
**A.** The inhibition was “inactive”.

**Q.** And the IC50 (Cytochrome P450 1A2)?
**A.** The IC50 was 3910 nM.

**Q.** What about the IC50 (Cytochrome P450 1B1) of the same molecule?
**A.** Its IC50 is 11.9 nM.

**Q.** And the Activity [2]?
**A.** The Activity was “Not Active”.

**Q.** And the IC50 (Cytochrome P450 1A1)?
**A.** Its IC50 is 279 nM.

**Q.** What about the Activity (A549/TR [3]) of the same molecule?
**A.** Its Activity is “Active”.

**Q.** What about the Activity (A549/TR [4]) of the same molecule?
**A.** The Activity was “inactive”.

**Q.** And the Activity (A549/TR [5])?
**A.** The Activity was “inactive”.

**Q.** And the Activity [6]?
**A.** The Activity was “Not Active”.

**Q.** What about the “fold change (FC)” value [7] of the same molecule?
**A.** The value was 0.8.

**Q.** And the “fold change (FC)” value [8]?
**A.** Its value is 1.

**Q.** And the inhibition (A549/TR [9])?
**A.** The inhibition was “inactive”.

**Q.** What about the inhibition [10] of the same molecule?
**A.** The inhibition was “Active”.
